From the supplement of paper PMC10307832

Columns and labels:
Assay in all cases: relative viability (nuclei count vs DMSO), 5 days (fraction); higher = more cells survive
XMD13-2 + Pemetrexed = compound: C1CC1C(=O)NC2=NNC3=C2C=CC(=C3)C4=CC(=CC=C4)C(=O)NC5CC5 [XMD13-2] + Nc1nc2[nH]cc(CCc3ccc(C(=O)N[C@@H](CCC(=O)O)C(=O)O)cc3)c2c(=O)[nH]1 [Pemetrexed] (partner 0.2 µM)
How it was run: (§1)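 Nuclei were stained with Hoechst during a one-step fixation (final 0.05% Triton X-100, 1% formaldehyde, 1 ug/ml Hoechst) carried out 5 days after dosing, then counted on 4× images. The cells, lung cancer lines in 1536-well plates, had been dosed by pin tool the day after seeding with one drug alone or a fixed anchor-drug dose plus five library-drug doses (not always all listed) in √10 steps. Relative viability is the nuclei count in treated wells divided by that in vehicle wells, and each value is the median of duplicate plates.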

XMD13-2 + Pictilisib = compound: C1CC1C(=O)NC2=NNC3=C2C=CC(=C3)C4=CC(=CC=C4)C(=O)NC5CC5 [XMD13-2] + CS(=O)(=O)N1CCN(Cc2cc3nc(-c4cccc5[nH]ncc45)nc(N4CCOCC4)c3s2)CC1 [Pictilisib] (partner 1 µM)
How it was run: as §1

Dasatinib + Palbociclib = compound: Cc1nc(Nc2ncc(C(=O)Nc3c(C)cccc3Cl)s2)cc(N2CCN(CCO)CC2)n1 [Dasatinib] + CC(=O)c1c(C)c2cnc(Nc3ccc(N4CCNCC4)cn3)nc2n(C2CCCC2)c1=O [Palbociclib] (partner 0.5 µM)
How it was run: as §1

XMD13-2 + Bortezomib = compound: C1CC1C(=O)NC2=NNC3=C2C=CC(=C3)C4=CC(=CC=C4)C(=O)NC5CC5 [XMD13-2] + CC(C)C[C@H](NC(=O)[C@H](Cc1ccccc1)NC(=O)c1cnccn1)B(O)O [Bortezomib] (partner 0.002 µM)
How it was run: as §1

Cell Line | relative viability (XMD13-2 + Pemetrexed; first compound 0.05 µM) | relative viability (XMD13-2 + Pemetrexed; first compound 0.1581 µM) | relative viability (XMD13-2 + Pemetrexed; first compound 0.5 µM) | relative viability (XMD13-2 + Pemetrexed; first compound 1.581 µM) | relative viability (XMD13-2 + Pemetrexed; first compound 5 µM) | relative viability (XMD13-2 + Pictilisib; first compound 0.05 µM) | relative viability (XMD13-2 + Pictilisib; first compound 0.1581 µM) | relative viability (XMD13-2 + Pictilisib; first compound 0.5 µM) | relative viability (XMD13-2 + Pictilisib; first compound 1.581 µM) | relative viability (XMD13-2 + Pictilisib; first compound 5 µM) | relative viability (Dasatinib + Palbociclib; first compound 0.005 µM) | relative viability (Dasatinib + Palbociclib; first compound 0.01581 µM) | relative viability (Dasatinib + Palbociclib; first compound 0.05 µM) | relative viability (Dasatinib + Palbociclib; first compound 0.1581 µM) | relative viability (Dasatinib + Palbociclib; first compound 0.5 µM) | relative viability (XMD13-2 + Bortezomib; first compound 0.05 µM) | relative viability (XMD13-2 + Bortezomib; first compound 0.1581 µM) | relative viability (XMD13-2 + Bortezomib; first compound 0.5 µM) | relative viability (XMD13-2 + Bortezomib; first compound 1.581 µM) | relative viability (XMD13-2 + Bortezomib; first compound 5 µM)
HCC-78 | 0.921 | 0.918 | 0.883 | 0.962 | 0.964 | 0.227 | 0.281 | 0.195 | 0.223 | 0.188 | 0.459 | 0.429 | 0.443 | 0.382 | 0.239 | 0.464 | 0.551 | 0.349 | 0.553 | 0.516
HCC-366 | 0.147 | 0.175 | 0.164 | 0.172 | 0.187 | 0.189 | 0.136 | 0.151 | 0.2 | 0.12 | 0.412 | 0.185 | 0.173 | 0.114 | 0.0885 | 1.24 | 0.988 | 0.969 | 1.04 | 1.04
HCC-827 | 0.264 | 0.27 | 0.211 | 0.272 | 0.261 | 1.01 | 0.901 | 1.18 | 0.913 | 0.67 | 0.438 | 0.458 | 0.419 | 0.135 | 0.114 | 1.05 | 1.02 | 1.04 | 0.957 | 1.04
HOP-62 | 0.264 | 0.339 | 0.299 | 0.285 | 0.278 | 1.01 | 0.617 | 0.586 | 0.725 | 0.476 | 0.391 | 0.381 | 0.506 | 0.431 | 0.182 | 1.03 | 0.726 | 0.842 | 1.23 | 0.756
IA-LM |  |  |  |  |  | 0.387 | 0.317 | 0.339 | 0.3 | 0.179 |  |  |  |  |  | 0.907 | 0.79 | 0.825 | 0.829 | 0.398
LC-2-ad | 0.285 | 0.26 | 0.282 | 0.303 | 0.256 | 0.533 | 0.352 | 0.569 | 0.413 | 0.332 | 0.515 | 0.471 | 0.477 | 0.299 | 0.159 | 1.25 | 1.11 | 1.1 | 1.01 | 1.08
LK-2 | 0.297 | 0.284 | 0.266 | 0.291 | 0.393 | 0.744 | 0.464 | 0.581 | 0.619 | 0.582 | 0.583 |  | 0.41 | 0.217 | 0.223 |  |  |  |  | 
NCI-H358 | 0.171 | 0.168 | 0.175 | 0.179 | 0.166 | 0.32 | 0.24 | 0.354 | 0.313 | 0.365 | 0.144 | 0.129 | 0.101 | 0.0794 | 0.0791 |  |  |  |  | 
NCI-H522 | 1.24 | 1.05 | 1.1 | 1.08 | 0.886 |  |  |  |  |  | 1.1 | 0.802 | 0.985 | 0.773 | 0.722 |  |  |  |  | 
NCI-H596 | 0.478 | 0.454 | 0.518 | 0.456 | 0.492 | 0.447 | 0.406 | 0.351 | 0.384 | 0.411 |  |  |  |  |  | 1.1 | 0.881 | 1.34 | 1.11 | 1.2
NCI-H727 |  |  |  |  |  | 0.421 | 0.321 | 0.36 | 0.527 | 0.551 | 0.553 | 0.455 | 0.523 | 0.388 | 0.281 | 0.996 | 0.936 | 0.792 | 0.982 | 1.03
NCI-H1299 |  |  |  |  |  | 0.896 | 0.738 | 0.826 | 0.592 | 0.398 |  |  |  |  |  | 1.02 | 1.05 | 1.05 | 1.05 | 1.11
NCI-H1395 | 0.93 | 0.998 | 0.879 | 0.876 | 0.911 | 0.724 | 0.646 | 0.623 | 0.574 | 0.528 | 0.594 | 0.588 | 0.535 | 0.443 | 0.304 |  |  |  |  | 
NCI-H1563 | 0.76 | 0.806 | 0.741 | 0.75 | 0.913 | 0.581 | 0.665 | 0.737 | 0.651 | 0.605 |  |  |  |  |  | 0.949 | 0.908 | 0.816 | 0.764 | 0.86
NCI-H1648 | 0.702 |  | 0.726 | 0.705 | 0.719 |  |  |  |  |  | 0.281 | 0.29 | 0.334 | 0.298 | 0.243 |  |  |  |  | 
NCI-H1703 |  |  |  |  |  | 0.296 | 0.262 | 0.267 | 0.237 | 0.193 |  |  |  |  |  | 0.47 | 0.597 | 0.407 | 0.228 | 0.195
NCI-H1793 | 1.26 | 0.83 | 0.94 | 0.859 | 0.97 | 0.288 | 0.442 | 0.373 | 0.403 | 0.192 | 0.217 | 0.279 | 0.236 | 0.247 | 0.231 |  |  |  |  | 
NCI-H1944 | 0.74 | 0.573 | 0.622 | 0.875 | 0.642 | 0.352 | 0.345 | 0.357 | 0.373 | 0.333 | 0.315 | 0.242 | 0.249 | 0.119 | 0.111 |  |  |  |  | 
NCI-H2170 | 0.284 | 0.294 | 0.323 | 0.267 | 0.285 | 0.349 | 0.33 | 0.338 | 0.275 | 0.247 | 0.377 | 0.394 | 0.397 | 0.288 | 0.204 |  |  |  |  | 
NCI-H2342 | 0.806 | 0.711 | 0.772 | 0.72 | 0.775 |  |  |  |  |  | 0.483 | 0.646 | 0.464 | 0.393 | 0.267 |  |  |  |  | 
SK-MES-1 | 1.01 | 0.894 | 0.911 | 0.909 | 0.864 | 0.408 | 0.422 | 0.333 | 0.365 | 0.349 | 0.353 | 0.358 | 0.269 | 0.187 | 0.154 |  |  |  |  | 
SW 900 | 0.485 | 0.502 | 0.508 | 0.493 | 0.529 |  |  |  |  |  | 0.454 | 0.273 | 0.276 | 0.222 | 0.183 |  |  |  |  | 
